Values after ≈ are worked out from the molar mass of the structure shown. Read-outs that look alike come from different tables or passages of the source.
Tests used:
[1] = test system: co-culture of Normal Human Epidermal Keratinocytes (NHEKs) and Normal Human Melanocytes (NHMs); assay: Melanin production in NHK/NHM co-culture: comparison (Example 7); assay type: cell-based; conditions: 5 days; for effect on melanin synthesis / melanin content (in words): taxifolin glucoside 0.13 μg/mL alone, + N-acetyl tyrosine 15 μg/mL or + L-tyrosine 15 μg/mL
Description: The aim of this study was to compare the effect of the hair care active agent of the present invention, which comprises taxifolin glucoside and N-acetyl tyrosine, with those of L-tyrosine (positive reference), of taxifolin glucoside, and of a mixture of taxifolin glucoside and L-tyrosine. The model used for this comparison was a co-culture of Normal Human Epidermal Keratinocytes (NHEKs) and Normal Human Melanocytes (NHMs).
The cell culture was realized with primary cells isolated from human skin biopsies.
Normal Human Keratinocytes (NHKs) were seeded at 60000 cells per well in 6-wells plates pre-coated with collagen I. 4 hours later, Normal Human Melanocytes (NHMs) were seeded at 60 000 cells per well in the same 6-wells plates. The cells were incubated for 48 hours in complete medium (EpiLife® supplemented with HKGS=Human Kerationcyte Growth Supplement).
After 48 hours of culture, the cells were stimulated for 5 days with the following compositions: • L-tyrosine at 450 μg/mL (Sigma) • Taxifolin glucoside at 0.13 μg/mL • Taxifolin glucoside at 0.13 μg/mL+N-acetyl tyrosine at 15 μg/mL (similar to Example 1) • Taxifolin glucoside at 0.13 μg/mL+L-tyrosine at 15 μg/mL (Sigma)
The compositions were diluted in a basal medium without supplements (EpiLife®). Every 2 days, the treatments were renewed.
After 5 days of treatment, cells were rinsed off with PBS. Then, in each well, 200 μL of a 0.5N NaOH solution was added. The cell lysates were collected in 1.5 mL microtubes with secure caps. In parallel, a standard range of melanin was prepared (1000 μg/mL). Microtubes of samples and standard range were heated for 1 hour at 80° C. in a dry bath. After the heating, 100 μL of each sample was transferred to a 96-wells plate.
Optical density was measured at 405 nm to determine the melanin content. […]
If it was not significant, the data was evaluated with statistical parametric tests (ANOVA followed by Dunnett's multiple comparisons test).
If it was significant, the data was evaluated with statistical non parametric tests (ANOVA of Kruskall-Wallis followed by a Mann-Whitney U test).

melanogenesis = conditions: Sang Mi An et al. Phytother. Res. 22, 1200-1207 (2008); cited from earlier work
Solubility = assay type: physicochemical
[2] = test system: melanocytes and melanoblasts in Anagen VI human hair follicles; assay: NKI/beteb melanocyte quantification in micro-dissected hair follicles under oxidative stress (Example 5); assay type: cell-based; conditions: cumene hydroperoxide oxidative stress
Protocol: Anagen VI human hair follicles (HFs) were dissected from the scalp (Donor). The HFs used were selected after 18 hours of pre-culture. The following parameters were evaluated in the selection procedure: growth rate (>0.18 mm/18 hours), morphology (no signs of dystrophy).
Starting from day 1, after the selection at day 0, the test compounds were dissolved in the culture medium and the HFs were cultured up to planned endpoints. Twelve hair follicles were used per treatment for each read out parameter. The culture medium was renewed every other day.
Total melanocytes quantification was obtained following NKI/beteb-DAPI double immunostaining of the cryo-sections. NKI/beteb antibody (#MON7006-1 by Monosan) recognizes a (pre-) melanosomal antigen present in all melanocytes (i.e. both active melanocytes and melanoblasts).
On the immunostained sections, image analysis was performed in order to quantify the number of NKI-beteb positive cells within each hair follicle. The obtained value was normalized relative to the total number of cells of the considered area.
Image analysis was performed using ImageJ software (NIH, USA).
All quantitative data was summarized in terms of the mean score, standard deviation and standard error of the mean for each treatment.
Differences between groups were evaluated by One-way ANOVA with permutation test followed by Tukey and t-test with permutation.

[3] = test system: Anagen VI human hair follicles; assay: ROS evaluation (DCFH-DA) in micro-dissected hair follicles under cumene hydroperoxide stress (Example 5); assay type: cell-based; conditions: 50 μM cumene hydroperoxide, 1 hour (oxidative stimulus)
Protocol: After the selection, the HFs were incubated for 1 hour with the standard solution from Example 1 dissolved in William's E medium. Afterwards, the HFs were cultured for 30 min in the presence of dichlorofluoerescein diacetate (DCFH-DA), a probe that reacts with ROS to become fluorescent. […] At the end of the experimental phase, the HFs were harvested, cryo-fixed and cut at the cryo-micro-tome for consequent image acquisition and image analysis of fluorescence within the sections. A slide for each HF was processed by image acquisition and related analysis (i.e. 12 images for each treatment). […]

Compound: N[C@@H](Cc1ccc(O)cc1)C(=O)O [L-tyrosine]
- melanin content / synthesis of melanin, change compared to the untreated condition ([1]; L-tyrosine 450 μg/mL, taxifolin glucoside 0.13 μg/mL + N-acetyl tyrosine 15 μg/mL, p<0.001): +35%

Compound: O=C1c2c(O)cc(O)cc2O[C@H](c2ccc(O)c(O)c2)[C@H]1O [taxifolin]
- effect on melanogenesis (in words) (melanogenesis): inhibit melanogenesis
- solubility (Solubility; water with taxifolin glucoside, aqueous with cosolvent or surfactant or cyclodextrin, suitable amounts of taxifolin glucoside, molar ratio about 1:1, read-out: solubility of taxifolin in water in the presence of taxifolin glucoside): ≥ 20000 µg/mL
- solubility (Solubility; water, typical, read-out: solubility of taxifolin in water): ~1000 µg/mL (≈ 3.29 mM)

Compound: Taxifolin glucoside
- effect on melanin synthesis / melanin content (in words) [1]: not able to induce synthesis of melanin
- effect on melanin synthesis / melanin content (in words) ([1]; listed as taxifolin glucoside): does not have any influence

Compound: cumene hydroperoxide
- reduction of the number of melanocytes compared to the untreated condition [2]: 78%
- increase of ROS production compared to the untreated condition [3]: +256%

Source: patent US20210378934A1, “HAIR CARE ACTIVE AGENT” (GIVAUDAN SA, priority 2018, published 2021)
